Measured values taken from the NIST ThermoML archive (doi:10.1016/j.fluid.2007.03.021).
± gives the expanded uncertainty stated by the source.

Details: Liquid

SMILES: CCO [ethanol]
- viscosity (298.15 K, 101.33 kPa, Capillary tube (Ostwald / Ubbelohde) method): 1.082 ± 0.009 mPa·s
- Normal boiling temperature (Ebulliometric method (Recirculating still)): 78.28 ± 0.05 °C
